Test results as given in patent US11266147B2, “Fungicidal oxadiazoles” (Bayer Aktiengesellschaft, priority 2017, dated 2022).

Assays:
[1] = system: Colletotrichum lindemuthianum; experiment: Colletotrichum lindemuthianum in vitro cell test; type: cell-based; settings: 144 h, liquid culture with spores, 6 days incubation, read-out: efficacy (inhibition of fungal growth); for inhibition at 4 ppm: 4 ppm of active ingredient; for inhibition at 20 ppm: 20 ppm of active ingredient
Method: Example E: Colletotrichum lindemuthianum In Vitro Cell Test • Solvent: DMSO • Culture medium: 14.6 g anhydrous D-glucose (VWR), 7.1 g Mycological Peptone (Oxoid), 1.4 g granulated Yeast Extract (Merck), QSP 1 liter • Inoculum: spores suspension Fungicides were solubilized in DMSO and the solution used to prepare the required range of concentrations. The final concentration of DMSO used in the assay was ≤[…]1%. A spore suspension of C. lindemuthianum was prepared and diluted to the desired spore density. Fungicides were evaluated for their ability to inhibit spores germination and mycelium growth in liquid culture assay. The compounds were added in the desired concentration to the culture medium with spores. After 6 days incubation, fungi-toxicity of compounds was determined by spectrometric measurement of mycelium growth. Inhibition of fungal growth was determined by comparing the absorbance values in wells containing the fungicides with the absorbance in control wells without fungicides.

[2] = LogP by HPLC on reversed phase columns (EEC directive 79/831 Annex V.A8); type: physicochemical; settings: method [a]: LC-UV, acidic range, 0.1% formic acid in water and acetonitrile, linear gradient 10% to 95% acetonitrile
Method: [table] If more than one LogP value is available within the same method, all the values are given and separated by “+”. Calibration was done with straight-chain alkan2-ones (with 3 to 16 carbon atoms) with known LogP values (measurement of LogP values using retention times with linear interpolation between successive alkanones). Lambda-max-values were determined using UV-spectra from 200 nm to 400 nm and the peak values of the chromatographic signals.

SMILES	inhibition at 4 ppm [1]	inhibition at 20 ppm [1]	chromatographic logP ([2]; reversed phase HPLC column)	LogP [2]
FC(F)(F)c1nc(-c2cnc(N[C@@H]3CCOc4ccccc43)nc2)no1 [Compound I-01, N-[(4R)-3,4-dihydro-2H-chromen-4-yl]-5-[5-(trifluoromethyl)-1,2,4-oxadiazol-3-yl]pyrimidin-2-amine]	70 to 79%	80 to 89%		
FC(F)(F)c1nc(-c2ccc(Nc3ncccn3)cc2)no1 [Compound I-05, N-{4-[5-(trifluoromethyl)-1,2,4-oxadiazol-3-yl]phenyl}pyrimidin-2-amine]	80 to 89%	90 to 100%	3.5	
Fc1ccccc1Nc1ncc(-c2noc(C(F)(F)F)n2)cn1 [Compound I-04, N-(2-Fluorophenyl)-5-[5-(trifluoromethyl)-1,2,4-oxadiazol-3-yl]pyrimidin-2-amine]	80 to 89%	80 to 89%		
FC(F)(F)c1nc(-c2ccc(Nc3ccccc3)cc2)no1 [Compound I-37]				4.56^[a]
FC(F)(Cl)c1nc(-c2cnc(Nc3ccccc3Cl)nc2)no1 [Compound I-77]				4.46^[a]
FC(F)(F)c1nc(-c2cnc(NC3CCOCC3)nc2)no1 [Compound I-16]				2.57^[a]
